In publication PMC12213745, “Compounds from Cyclocarya paliurus leaves inhibit binary division of methicillin-resistant Staphylococcus aureus by disrupting FtsZ dynamic” (Frontiers in Microbiology, 2025):
≈ marks a conversion by molar mass, not a printed value. Like-named read-outs stand apart in the source and are kept apart here.

Key:
Type in all cases: cell-based, Methicillin-resistant S. aureus
[1] = system: MRSA-4; assay: TEM analysis of septum formation; settings: 1 × MIC, 4 h
Procedure: MRSA-4 was cultured in MHB to mid-log phase as described above. The cultures were then treated with AA, MA, or UA (at 1 × MIC) or with an equal volume of PBS (negative control) for 4 h at 37°C. After treatment, bacterial suspensions were collected by centrifugation at 13,000 × g for 3 min, and the resulting pellets were washed with PBS. Pellets were fixed in 2.5% glutaraldehyde prepared in 0.1 M cacodylate buffer (pH 7.2). Following fixation, samples were dehydrated in a graded ethanol series (30 to 100%), with 100% ethanol replaced three times. Samples were infiltrated with acetone/Epon-812 resin mixtures at ratios of 3:1, 1:1, and 1:3, then embedded in pure Epon-812 resin. Ultrathin sections (60–90 nm) were cut and placed on copper grids. The sections were stained with saturated uranyl acetate for 10–15 min, followed by lead citrate for 1–2 min. Structural and morphological changes in the bacterial cells were observed using a JEOL JEM-1400FLASH transmission electron microscope (JEOL, Japan).
We first evaluated the impact of AA, MA, and UA on septum formation in MRSA-4 cells using TEM. MRSA-4 cultures were treated with AA, MA, or UA at 1 × MIC for 4 h, with PBS-treated cells serving as the control. […] These abnormalities imply that AA, MA, and UA disrupt the septum formation process, which is essential for successful cell division.

[2] = system: MRSA-4; assay: SIM analysis of Z-ring assembly (FtsZ immunostaining); settings: 1 × MIC, 4 h
Procedure: MRSA-4 was cultured in MHB at 37°C to mid-logarithmic phase and subsequently treated with AA, MA, or UA at concentration of 1 × MIC, or with PBS as a control, for 4 h at 37°C. Following treatment, cells were harvested by centrifugation, washed once with PBS, and fixed with 4% (w/v) paraformaldehyde in PBS for 15 min at room temperature. Fixed cells were then washed twice with PBS. The pellets were resuspended in 90 μL GTE buffer (50 mM glucose, 25 mM Tris–HCl, pH 8.0, 10 mM EDTA) containing 10 μL lysozyme (3 mg/mL) and incubated for 3 min at room temperature. The suspension was applied onto poly-L-lysine-coated glass slides and allowed to adhere. After removing excess liquid, the slides were blocked with PBS containing 2% (w/v) BSA and 0.1% (v/v) Tween-20 for 15 min. Slides were incubated overnight at 4°C with polyclonal rabbit anti-FtsZ primary antibody, followed by three washes with PBST (PBS containing 0.1% Tween-20). Alexa Fluor 488-conjugated goat anti-rabbit IgG as the secondary antibody was then applied and incubated for 1 h at room temperature in the dark. After washing, nuclei were stained with DAPI for 3–5 min, followed by 2–3 times PBS washes to remove excess stain. Coverslips were mounted with 50% (v/v) glycerol in PBS and sealed with nail polish. Z-ring structures were visualized using structured illumination microscopy (N-SIM S, Nikon, Tokyo, Japan).
Given that septum formation is orchestrated by the FtsZ-based Z-ring, we next examined whether AA, MA, and UA affect Z-ring assembly. Structured illumination microscopy (SIM) was employed to visualize FtsZ localization in MRSA-4 cells treated with each compound at 1 × MIC for 4 h.

[3] = system: MRSA-4; assay: MIC, broth microdilution (CLSI); settings: Staphylococcus aureus
Source text: Staphylococcus aureus ATCC25923 and Escherichia coli ATCC25922 were obtained from the American Type Culture Collection (ATCC, Manassas, VA, USA). The Methicillin-resistant S. aureus (MRSA) clinical isolate MRSA-4, previously confirmed as mecA-positive and characterized for its antibiotic resistance profile ([Sun et al., 2023]), was used in this study. Staphylococcus epidermidis (GDMCC 1.143), Enterococcus faecalis (GDMCC 1.164), and Salmonella enterica subsp. enterica (GDMCC 1.1114) were obtained from the Guangdong Microbial Culture Collection Center (GDMCC, Guangzhou, China). The Pseudomonas aeruginosa PA14 strain was kindly provided by Professor Min Wu (Southwest Medical University, China). All bacterial strains were routinely cultured in Mueller-Hinton broth (MHB) or Luria-Bertani (LB) broth medium at 37°C with shaking at 200 rpm. Vancomycin was purchased from Solarbio Science & Technology Co., Ltd. (Beijing, China), and oxacillin was obtained from Taiji Group Hengsheng Pharmaceutical Co., Ltd. (Chengdu, China). The polyclonal rabbit primary anti-body to FtsZ was purchased from Abcam PLC (Cambridge, UK). Alexa488-conjugated goat anti-rabbit IgG was purchased from ZSGB-BIO Biotechnology (Beijing, China). DAPI staining solution was purchased from Beyotime Biotechnology (Shanghai, China).
The minimum inhibitory concentrations (MICs) of the test compounds (AA, MA, and UA) were determined using the standard broth microdilution method in accordance with the Clinical and Laboratory Standards Institute (CLSI) guidelines ([Humphries et al., 2021]). Bacteria were cultured in MHB or LB broth at 37°C with shaking (200 rpm) to the logarithmic phase, then diluted to a final density of 1 × 10^6 CFU/mL. Test compounds (dissolved in DMSO) and positive controls (vancomycin and oxacillin) were diluted in MHB and serially twofold diluted in 96-well plates. Each well was inoculated with 100 μL of bacterial suspension (1 × 10^6 CFU/mL), yielding a final bacterial density of 5 × 10^5 CFU/mL and a total volume of 200 μL. The final concentrations tested were 128 to 1 μg/mL for AA, MA, and UA; 16 to 0.5 μg/mL for vancomycin; and 64 to 0.0625 μg/mL for oxacillin. DMSO was used as a solvent control. Plates were incubated statically at 37°C for 18–24 h. After incubation, the OD600 was measured using a microplate reader (SpectraMax i3x, Molecular Devices, CA, USA). The MIC was defined as the lowest compound concentration that caused ≥ 90% inhibition of bacterial growth compared to the drug-free growth control. All tests were performed in three independent biological replicates.
Following the isolation and identification of AA, MA, and UA from ECPL, we evaluated their antibacterial activity and spectrum. The MICs of the compounds were determined against MRSA-4, S. aureus ATCC25923, S. epidermidis, and E. faecalis (Gram-positive), as well as P. aeruginosa PA14, E. coli ATCC25922, and S. enterica subsp. Enterica (Gram-negative) using the standard broth microdilution method in accordance with CLSI guidelines ([Humphries et al., 2021]).

[4] = MRSA-4, ≥ 90% growth inhibition, 18–24 h, read-out: MIC

C[C@H]1[C@H](C)CC[C@]2(C(=O)O)CC[C@]3(C)C(=CC[C@@H]4[C@@]5(C)C[C@@H](O)[C@H](O)[C@@](C)(CO)[C@@H]5CC[C@]43C)[C@H]12 [AA, asiatic acid]
septum formation (TEM) [1]: incomplete, mislocalized, or absent septa
FtsZ localization / Z-ring formation (SIM) [2]: aberrant FtsZ localization
MIC [3, 4]: 32 µg/mL (≈ 65.5 µM)

CC1(C)CC[C@]2(C(=O)O)CC[C@]3(C)C(=CC[C@@H]4[C@@]5(C)C[C@@H](O)[C@H](O)C(C)(C)[C@@H]5CC[C@]43C)[C@@H]2C1 [MA, maslinic acid]
septum formation (TEM) [1]: incomplete, mislocalized, or absent septa
FtsZ localization / Z-ring formation (SIM) [2]: aberrant FtsZ localization
MIC ([3]; MRSA): 32 µg/mL (≈ 67.7 µM)

C[C@H]1[C@H](C)CC[C@]2(C(=O)O)CC[C@]3(C)C(=CC[C@@H]4[C@@]5(C)CC[C@H](O)C(C)(C)[C@@H]5CC[C@]43C)[C@H]12 [UA, ursolic acid]
septum formation (TEM) [1]: incomplete, mislocalized, or absent septa
FtsZ localization / Z-ring formation (SIM) [2]: aberrant FtsZ localization
MIC [3, 4]: 8 µg/mL (≈ 17.5 µM)
